These results are taken from article PMC9962735, “Synthesis and Cytotoxic Activity of the Derivatives of N-(Purin-6-yl)aminopolymethylene Carboxylic Acids and Related Compounds” (Molecules, 2023).

A value given as a limit tells only on which side of the number the result lay.

In series [1] the test system is herpes simplex virus type 1 (HSV-1), including acyclovir-resistant HSV-1 strain. Set-up: method as in doi:10.1002/ejoc.201900727, doi:10.1515/pac-2019-1214, doi:10.1007/s10593-021-02929-z. As to conditions: HSV-1 including acyclovir-resistant strain; cited from earlier work.
Series [2] in a line: MTT cytotoxicity assay, SNU-1. Format: cell-based, human. The settings on record: human, CC50 of WI-38 divided by CC50 of SNU-1 (Table 3); read-out: SCI (selective cytotoxicity index). The source says:
(§1) The cytotoxicity of the test compounds was studied using the MTT assay against a number of cell lines: CT-26 murine colon carcinoma, 4T1 murine mammary carcinoma, MDA-MB-231 human breast adenocarcinoma, COLO201 human colorectal adenocarcinoma, HepG2 human hepatocellular carcinoma, A549 human non-small-cell lung carcinoma, SK-BR-3 human breast adenocarcinoma, SNU-1 human gastric carcinoma, Jurkat human acute T-lymphoblastic leukemia, and WI-38 human lung fibroblasts (normal cells). Doxorubicin (Dox) was used as a reference drug. Cells were incubated with test compounds for 72 h.
(§2) Cells were seeded in flat-bottomed 96-well plates at 10,000 cells per well (for A549, SNU-1, WI-38, CT-26, MDA-MB-231, 4T1, and HepG2 cells) or 20,000 cells per well (for SK-BR-3, Jurkat, and COLO201 cells) and cultivated in complete culture mediums (for composition of each medium, see the Supplementary Materials, Table S1) in a CO2 incubator at 37 °C. At the first stage of this study, the test compounds dissolved in DMSO were added to the wells with cells at final concentrations from 1 × 10^–4 to 1 × 10^–10 mol/L (A549, SK-BR-3, SNU-1, Jurkat, and WI-38) or 1 × 10^–3 to 1 × 10^–8 mol/L (CT-26, MDA-MB-231, 4T1, COLO201, and HepG2); DMSO concentration in the wells was finally 1%. A complete cultural medium and DMSO were added to the control wells at the same concentration as in the experimental wells; 0.1% Triton X-100 solution (10 µL) was added to the corresponding wells as a non-specific positive control. After adding the test compounds, the cells were incubated for 72 h in an atmosphere containing 5% CO2. After that, the nutrient medium was removed from each well (in the case of SK-BR-3, Jurkat, and COLO201, plates were pre-centrifuged at 1500 rpm for 6 min). A solution of the commercial anticancer agent Doxorubicin (Dox, Sigma-Aldrich, St. Louis, MO, USA) in DMSO was used as a reference drug. Then, 150 µL of a complete medium with the MTT reagent (PanEco, Moscow, Russia) at a concentration of 0.5 mg/mL was added and incubated for 2 h. Formazan crystals were dissolved in DMSO (200 µL) and the absorbance in the wells was measured at 540 nm and a reference wavelength of 650 nm (Sunrise, Tecan, Groding, Austria). Experiments were performed in three parallel runs. Cell viability after incubation in the presence of test compounds was calculated in relation to cell viability in the control wells according to the Formula (1):Cell viability (%) = (Aexp/Ac) × 100,(1) where Aexp is the optical density of solutions in the wells containing test compounds; Ac is the optical density of solutions in control wells without test compounds. For detailed information on cell viability of various cell lines, see the Supplementary Materials, Figures S21–S26.
(§3) At the second stage of this study, in order to more accurately calculate the CC50 (the half maximal inhibitory concentration), the cytotoxic effect of test compounds was evaluated at concentrations close to CC50 found at the first stage. The study of the cytotoxic activity of each substance towards the cells of each line was carried out in triplicate; the mean value was used to calculate CC50. The CC50 values were determined by non-linear regression analysis using Graph-Pad Prism7.
(In general: Tetrazolium dyes change colour on reduction, which living cells bring about.)

In series [3] the test system is SNU-1 human gastric carcinoma. The experiment in a line: MTT cytotoxicity assay, SNU-1. As to conditions: Homo sapiens, SNU1, 72 h, SNU-1, 72 h incubation, MTT, n = 3 (Table 3). In kind it is cell-based.
Excerpt: as §1, §2, §3

Series [4] in a line: MTT cytotoxicity assay, Jurkat. In kind it is cell-based, human. As to conditions: human, CC50 of WI-38 divided by CC50 of Jurkat (Table 3); read-out: SCI (selective cytotoxicity index).
Excerpt: as §1, §2, §3

The test system of series [5] is Jurkat human acute T-lymphoblastic leukemia. As to the kind of experiment: MTT cytotoxicity assay, Jurkat. In kind it is cell-based. The settings on record: Homo sapiens, Jurkat, 72 h, 72 h incubation, MTT, n = 3 (Table 3).
Excerpt: as §1, §2, §3

For series [6], the system named is A549 human non-small-cell lung carcinoma. As to the kind of experiment: MTT cytotoxicity assay, A549. In kind it is cell-based. The settings on record: Homo sapiens, A549, 72 h, A549, 72 h incubation, MTT, n = 3 (Table 3).
Excerpt: as §1, §2, §3

Series [7] in a line: MTT cytotoxicity assay, A549. Format: cell-based, human. As to conditions: human, CC50 of WI-38 divided by CC50 of A549 (Table 3); read-out: SCI (selective cytotoxicity index).
Excerpt: as §1, §2, §3

Series [8] relates to A549, SK-BR-3, SNU-1, Jurkat, WI-38 cell lines. The experiment in a line: MTT cytotoxicity assay, cell line panel (result in words). As to conditions: 72 h. In kind it is cell-based, human.
Excerpt: as §1
The cytotoxicity of compounds 2a–c, 6, 7, and 9 was also studied using the MTT assay against a number of tumor cell lines: A549, SK-BR-3, SNU-1, Jurkat, as well as normal fibroblasts WI-38 (Table 3).
as §2, §3

Series [9] in a line: MTT cytotoxicity assay, WI-38 normal cells. In kind it is cell-based. As to conditions: human, WI-38 lung fibroblasts (normal cells), WI-38, 72 h incubation, MTT, n = 3 (Table 3).
Excerpt: as §1, §2, §3

The test system of series [10] is SK-BR-3 human breast adenocarcinoma. As to the kind of experiment: MTT cytotoxicity assay, SK-BR-3. Format: cell-based. The settings on record: Homo sapiens, SK-BR-3, 72 h, SK-BR-3, 72 h incubation, MTT, n = 3 (Table 3).
Excerpt: as §1, §2, §3

Series [11] can be described thus: MTT cytotoxicity assay, SK-BR-3. Format: cell-based, human. As to conditions: human, CC50 of WI-38 divided by CC50 of SK-BR-3 (Table 3); read-out: SCI (selective cytotoxicity index).
Excerpt: as §1, §2, §3

Regarding `CC1COc2c(ccc(F)c2F)N1C(=O)CCCCCNc1ncnc2[nH]cnc12` (centres unmarked) [Compound 1b], the “antiviral activity in vitro against HSV-1” value in [1] is reported as “high antiviral activity”. The selectivity ratio at 72 h in series [2] is 4.9; in series [4], 1.5; in [7], 1.8; in series [11], not above 0.98. Moreover, the CC50 in [3] is 20 µM; in series [5], 67 µM; in series [6] it was 53 µM; in series [10] it was more than 100 µM. For the same molecule, in series [8], the “cytotoxic activity (in words)” value was “showed cytotoxic activity”. The same molecule returned a CC50 at 72 h in series [9] of 98 µM.

What is called CC50 is the concentration giving 50% cytotoxicity. Higher therefore signals better tolerance by the cells.
